From US20080009418A1, “Selective Inhibitors” (Alchemia LTD., priority 2004, published 2008)

What was measured:
[1] = target: T1, Human melanocortin (MC5) (Homo sapiens, UniProt P33032); assay: Radioligand binding, human melanocortin MC5 membranes, FlashPlate, [125I]-NDP-αMSH; details: compound at 10 μM; for A5: inhibition of radioligand binding, human melanocortin (MC5): [125I]-NDP-αMSH
T1 construct: purchased Perkin Elmer Biosignal
Procedure, shortened: (§1)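 Cloned human receptor membranes were coated onto FlashPlate wells and incubated with radioligand and compound (added from a 0.5 mM DMSO daughter plate) for 1 hour at room temperature in the dark. Scintillation counting gave percent inhibition, with DMSO defining total and reference ligand defining non-specific binding.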

[2] = target: T2, Human Melanocortin (MC3) (Homo sapiens, UniProt P41968); assay: Radioligand binding, human melanocortin MC3 membranes, FlashPlate, [125I]-NDP-αMSH; details: compound at 10 μM; for A3: inhibition of radioligand binding, human melanocortin (MC3): [125I]-NDP-αMSH
T2 construct: purchased Perkin Elmer Biosignal
Procedure, shortened: as §1

[3] = target: T3, Human μ-opioid (MOP) (Homo sapiens, UniProt P35372); assay: Radioligand binding, human μ-opioid (MOP) membranes, FlashPlate, [3H]-Naloxone; details: compound at 10 μM; for A7: inhibition of radioligand binding, human μ-opioid (MOP): [3H]-Naloxone
T3 construct: purchased Perkin Elmer Biosignal
Procedure, shortened: as §1

[4] = target: T4, Human δ-opioid (DOP) (Homo sapiens, UniProt P41143); assay: Radioligand binding, human δ-opioid (DOP) membranes, FlashPlate, [3H]-Bremazocine; details: compound at 10 μM; for A1: inhibition of radioligand binding, human δ-opioid (DOP): [3H]-Bremazocine
T4 construct: purchased Perkin Elmer Biosignal
Procedure, shortened: as §1

[5] = target: T5, Human κ-Opioid (KOP) (Homo sapiens, UniProt P41145); assay: Radioligand binding, human κ-opioid (KOP) membranes, filtration, [3H]-Diprenorphine; details: compound at 10 μM; for A2: inhibition of radioligand binding, human κ-opioid (KOP): [3H]-Diprenorphine
T5 construct: purchased Perkin Elmer Biosignal
Procedure, shortened: (§2)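 Filtration binding on cloned human receptor membranes (1 Unit/well), [125I]-Substance P for NK1 and [3H]-Diprenorphine for KOP, 1 h at room temperature. Filters PEI-presoaked, washed with cold 50 mM Tris-HCl pH 7.4, counted by scintillation; percent inhibition calculated, reference ligand defining non-specific binding.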

[6] = target: T6, Human opioid (ORL1) (Homo sapiens, UniProt P41146); assay: Radioligand binding, human opioid ORL1 membranes, FlashPlate, [125I]-Nociceptin; details: compound at 10 μM; for A10: inhibition of radioligand binding, human opioid (ORL1): [125I]-Nociceptin
T6 construct: purchased Perkin Elmer Biosignal
Procedure, shortened: as §1

[7] = target: T7, Human melanin-concentrating hormone (MCH1) (Homo sapiens, UniProt Q99705); assay: Radioligand binding, human melanin-concentrating hormone MCH1 membranes, FlashPlate, [125I]-S36057; details: compound at 10 μM; for A6: inhibition of radioligand binding, human melanin-concentrating hormone (MCH1): [125I]-S36057
T7 construct: purchased Perkin Elmer Biosignal
Procedure, shortened: as §1

[8] = target: T8, Human neurokinin (NK1) (Homo sapiens, UniProt P25103); assay: Radioligand binding, human neurokinin NK1 membranes, filtration, [125I]-Substance P; details: compound at 10 μM; for A8: inhibition of radioligand binding, human neurokinin (NK1): [125I]-Substance P
T8 construct: purchased Perkin Elmer Biosignal
Procedure, shortened: as §2

[9] = target: T9, Human neuropeptide Y (NPY-Y1) (Homo sapiens, UniProt P25929); assay: Radioligand binding, human neuropeptide Y NPY-Y1 membranes, FlashPlate, [125I]-PYY; details: compound at 10 μM; for A9: inhibition of radioligand binding, human neuropeptide Y (NPY-Y1): [125I]-PYY
T9 construct: purchased Perkin Elmer Biosignal
T9 sequence (P25929 1-384): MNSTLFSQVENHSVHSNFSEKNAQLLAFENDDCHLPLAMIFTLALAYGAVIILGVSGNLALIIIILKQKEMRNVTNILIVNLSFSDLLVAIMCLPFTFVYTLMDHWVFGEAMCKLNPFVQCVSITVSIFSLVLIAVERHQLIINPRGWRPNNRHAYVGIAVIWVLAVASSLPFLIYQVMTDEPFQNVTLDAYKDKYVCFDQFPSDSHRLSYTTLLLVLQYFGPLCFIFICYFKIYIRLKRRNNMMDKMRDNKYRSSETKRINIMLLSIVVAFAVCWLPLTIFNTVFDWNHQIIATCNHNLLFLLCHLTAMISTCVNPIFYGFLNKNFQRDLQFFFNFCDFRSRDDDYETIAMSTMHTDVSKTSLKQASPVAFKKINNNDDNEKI
Procedure, shortened: as §1

[10] = target: T10, Human Melanocortin (MC4) (Homo sapiens, UniProt P32245); assay: Radioligand binding, human melanocortin MC4 membranes, FlashPlate, [125I]-NDP-αMSH; details: compound at 10 μM; for A4: inhibition of radioligand binding, human melanocortin (MC4): [125I]-NDP-αMSH
T10 construct: purchased Perkin Elmer Biosignal
Procedure, shortened: as §1

[11] = target: T11, Mouse urotensin (mUR2) (Mus musculus, UniProt Q8VIH9); assay: Radioligand binding, mouse urotensin mUR2 membranes, FlashPlate, [125I]-Urotensin II; details: compound at 10 μM; for A11: inhibition of radioligand binding, mouse urotensin (mUR2): [125I]-Urotensin II
T11 construct: purchased Perkin Elmer Biosignal
T11 sequence (Q8VIH9 1-385): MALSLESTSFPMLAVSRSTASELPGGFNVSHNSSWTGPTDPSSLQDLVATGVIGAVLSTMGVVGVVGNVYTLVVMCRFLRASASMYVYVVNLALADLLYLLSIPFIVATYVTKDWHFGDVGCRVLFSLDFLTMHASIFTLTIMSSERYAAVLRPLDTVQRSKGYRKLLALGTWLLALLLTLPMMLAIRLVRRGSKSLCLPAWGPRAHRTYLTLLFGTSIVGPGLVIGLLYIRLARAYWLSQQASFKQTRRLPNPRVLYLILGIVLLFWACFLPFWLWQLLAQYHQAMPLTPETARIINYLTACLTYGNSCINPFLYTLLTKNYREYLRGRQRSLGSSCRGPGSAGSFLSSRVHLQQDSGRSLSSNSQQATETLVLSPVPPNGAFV
Procedure, shortened: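 Cloned mouse urotensin (mUR2) receptor membranes from Perkin Elmer Biosignal were immobilized in FlashPlate microplates using a proprietary coating. Each well got 19.5 μl buffer, then 0.5 μl of DMSO, reference ligand, or compound. Adding 5 μl of [125I]-Urotensin II, diluted to 5× final concentration in binding buffer, started binding. Plates were sealed with TopSeal-A and incubated 1 hour at room temperature in the dark. Wells were counted for 30 seconds each on a TopCount after a 60-second delay, and percentage inhibition was calculated.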

T1 sequence (P33032 whole entry): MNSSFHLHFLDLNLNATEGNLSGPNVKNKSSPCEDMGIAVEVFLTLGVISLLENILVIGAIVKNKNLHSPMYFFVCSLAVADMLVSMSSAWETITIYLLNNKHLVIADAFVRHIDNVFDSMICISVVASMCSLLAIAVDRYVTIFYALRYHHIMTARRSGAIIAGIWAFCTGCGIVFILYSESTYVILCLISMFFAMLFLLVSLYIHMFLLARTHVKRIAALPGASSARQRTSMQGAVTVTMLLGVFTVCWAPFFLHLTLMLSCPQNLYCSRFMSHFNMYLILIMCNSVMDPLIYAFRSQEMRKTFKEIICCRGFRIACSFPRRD
T10 sequence (P32245 whole entry): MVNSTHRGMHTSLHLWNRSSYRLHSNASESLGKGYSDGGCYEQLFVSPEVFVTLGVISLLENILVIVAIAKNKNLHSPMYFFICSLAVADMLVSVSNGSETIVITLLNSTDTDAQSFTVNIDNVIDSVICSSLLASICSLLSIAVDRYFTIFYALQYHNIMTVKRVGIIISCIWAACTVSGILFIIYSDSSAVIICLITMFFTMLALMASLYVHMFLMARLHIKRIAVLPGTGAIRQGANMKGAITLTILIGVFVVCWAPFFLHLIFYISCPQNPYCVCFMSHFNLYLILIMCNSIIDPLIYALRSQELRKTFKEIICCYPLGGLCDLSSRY
T2 sequence (P41968 whole entry): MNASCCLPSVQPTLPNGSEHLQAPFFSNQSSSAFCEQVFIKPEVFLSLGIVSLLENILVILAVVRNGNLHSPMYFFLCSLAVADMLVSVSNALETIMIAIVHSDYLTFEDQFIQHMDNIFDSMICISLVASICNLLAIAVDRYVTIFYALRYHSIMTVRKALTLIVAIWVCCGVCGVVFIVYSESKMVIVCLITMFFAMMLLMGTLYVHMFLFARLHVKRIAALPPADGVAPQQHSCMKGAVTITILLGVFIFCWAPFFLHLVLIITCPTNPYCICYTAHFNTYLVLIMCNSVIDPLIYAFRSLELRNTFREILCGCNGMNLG
T5 sequence (P41145 whole entry): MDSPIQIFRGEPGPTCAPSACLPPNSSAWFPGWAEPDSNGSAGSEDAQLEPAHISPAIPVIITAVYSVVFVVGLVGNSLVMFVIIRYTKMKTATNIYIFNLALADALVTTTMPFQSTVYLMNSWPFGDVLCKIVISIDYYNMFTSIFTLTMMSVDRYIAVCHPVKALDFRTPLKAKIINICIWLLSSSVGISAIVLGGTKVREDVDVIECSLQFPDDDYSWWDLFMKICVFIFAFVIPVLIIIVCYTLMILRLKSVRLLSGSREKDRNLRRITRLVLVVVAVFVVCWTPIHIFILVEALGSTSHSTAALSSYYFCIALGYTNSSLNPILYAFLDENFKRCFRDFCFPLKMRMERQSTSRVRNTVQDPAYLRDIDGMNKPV
T4 sequence (P41143 whole entry): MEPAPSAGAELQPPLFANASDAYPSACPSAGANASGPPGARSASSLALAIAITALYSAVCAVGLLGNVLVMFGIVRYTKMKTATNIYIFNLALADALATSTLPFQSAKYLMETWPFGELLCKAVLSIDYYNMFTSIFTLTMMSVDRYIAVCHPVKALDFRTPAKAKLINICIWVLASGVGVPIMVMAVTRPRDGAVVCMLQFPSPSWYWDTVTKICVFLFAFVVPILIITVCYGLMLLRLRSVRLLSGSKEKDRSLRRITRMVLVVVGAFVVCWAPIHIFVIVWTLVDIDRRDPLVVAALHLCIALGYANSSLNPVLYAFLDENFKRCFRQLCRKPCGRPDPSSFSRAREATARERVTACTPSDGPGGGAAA
T3 sequence (P35372 whole entry): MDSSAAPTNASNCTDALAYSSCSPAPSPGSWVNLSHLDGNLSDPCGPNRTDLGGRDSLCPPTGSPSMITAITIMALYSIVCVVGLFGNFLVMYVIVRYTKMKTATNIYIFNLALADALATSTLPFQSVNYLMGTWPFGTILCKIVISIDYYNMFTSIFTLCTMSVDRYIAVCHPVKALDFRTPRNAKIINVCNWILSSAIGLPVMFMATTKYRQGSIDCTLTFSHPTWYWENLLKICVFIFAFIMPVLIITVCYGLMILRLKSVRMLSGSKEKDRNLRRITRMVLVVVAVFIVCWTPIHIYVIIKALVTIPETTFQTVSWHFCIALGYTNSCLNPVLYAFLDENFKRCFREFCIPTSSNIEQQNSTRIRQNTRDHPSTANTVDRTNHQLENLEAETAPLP
T8 sequence (P25103 whole entry): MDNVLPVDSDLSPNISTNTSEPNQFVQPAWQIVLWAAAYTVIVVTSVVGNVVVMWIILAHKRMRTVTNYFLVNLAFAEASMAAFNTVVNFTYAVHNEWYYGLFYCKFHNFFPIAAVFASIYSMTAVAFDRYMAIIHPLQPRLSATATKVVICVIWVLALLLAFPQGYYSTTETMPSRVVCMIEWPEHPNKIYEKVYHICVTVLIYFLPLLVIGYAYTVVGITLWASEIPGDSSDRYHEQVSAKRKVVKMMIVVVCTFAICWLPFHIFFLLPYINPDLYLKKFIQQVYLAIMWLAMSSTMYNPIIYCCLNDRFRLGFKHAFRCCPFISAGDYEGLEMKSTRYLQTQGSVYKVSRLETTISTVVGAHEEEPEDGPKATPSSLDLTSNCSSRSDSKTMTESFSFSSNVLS
T7 sequence (Q99705 whole entry): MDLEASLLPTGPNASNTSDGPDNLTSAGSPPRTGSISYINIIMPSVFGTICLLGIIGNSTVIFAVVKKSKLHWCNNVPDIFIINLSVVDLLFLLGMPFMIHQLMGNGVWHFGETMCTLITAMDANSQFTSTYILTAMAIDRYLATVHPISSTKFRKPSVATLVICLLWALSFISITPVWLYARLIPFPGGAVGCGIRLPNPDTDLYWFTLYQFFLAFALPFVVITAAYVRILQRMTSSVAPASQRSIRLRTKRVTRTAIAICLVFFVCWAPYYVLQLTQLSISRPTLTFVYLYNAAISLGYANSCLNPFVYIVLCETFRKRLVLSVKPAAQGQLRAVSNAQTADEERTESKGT
T6 sequence (P41146 whole entry): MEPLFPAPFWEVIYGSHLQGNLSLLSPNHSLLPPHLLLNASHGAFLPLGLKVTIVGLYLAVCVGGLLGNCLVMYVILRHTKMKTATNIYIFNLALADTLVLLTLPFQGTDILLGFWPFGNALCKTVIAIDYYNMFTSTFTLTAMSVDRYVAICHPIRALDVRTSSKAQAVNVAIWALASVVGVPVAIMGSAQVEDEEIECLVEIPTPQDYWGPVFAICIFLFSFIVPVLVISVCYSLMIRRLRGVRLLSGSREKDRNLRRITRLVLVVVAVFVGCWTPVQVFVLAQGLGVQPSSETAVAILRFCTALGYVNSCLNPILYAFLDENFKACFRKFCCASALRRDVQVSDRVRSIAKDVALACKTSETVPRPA

| SMILES | A5: inhibition of radioligand binding, human melanocortin (MC5) [1] | A3: inhibition of radioligand binding, human melanocortin (MC3) [2] | A7: inhibition of radioligand binding, human μ-opioid (MOP) [3] | A1: inhibition of radioligand binding, human δ-opioid (DOP) [4] | A2: inhibition of radioligand binding, human κ-opioid (KOP) [5] | A10: inhibition of radioligand binding, human opioid (ORL1) [6] | A6: inhibition of radioligand binding, human melanin-concentrating hormone (MCH1) [7] | A8: inhibition of radioligand binding, human neurokinin (NK1) [8] | A9: inhibition of radioligand binding, human neuropeptide Y (NPY-Y1) [9] | A4: inhibition of radioligand binding, human melanocortin (MC4) [10] | A11: inhibition of radioligand binding, mouse urotensin (mUR2) [11] | also measured |
| --- | --- | --- | --- | --- | --- | --- | --- | --- | --- | --- | --- | --- |
| CSC1O[C@H](COCc2ccccc2)[C@@H](O)[C@@H](OCc2ccc(-c3ccccc3)cc2)[C@H]1NC(=O)CCCNC(=N)N (stereo partly drawn) [compound 287] | − (“−” indicates less than 50% inhibition at 10 μM) | − (“−” indicates less than 50% inhibition at 10 μM) | − (“−” indicates less than 50% inhibition at 10 μM) | − (“−” indicates less than 50% inhibition at 10 μM) | − (“−” indicates less than 50% inhibition at 10 μM) | − (“−” indicates less than 50% inhibition at 10 μM) | − (“−” indicates less than 50% inhibition at 10 μM) | + (“+” indicates greater than 50% inhibition at 10 μM) | − (“−” indicates less than 50% inhibition at 10 μM) | − (“−” indicates less than 50% inhibition at 10 μM) | − (“−” indicates less than 50% inhibition at 10 μM) | – |
| N=C(N)NCCCC(=O)NC1COC(COCc2ccc(Cl)cc2)C(O)C1OCc1ccc(Cl)cc1 (stereo not drawn) [compound 542] | − (“−” indicates less than 50% inhibition at 10 μM) | − (“−” indicates less than 50% inhibition at 10 μM) | − (“−” indicates less than 50% inhibition at 10 μM) | − (“−” indicates less than 50% inhibition at 10 μM) | − (“−” indicates less than 50% inhibition at 10 μM) | − (“−” indicates less than 50% inhibition at 10 μM) | − (“−” indicates less than 50% inhibition at 10 μM) | + (“+” indicates greater than 50% inhibition at 10 μM) | − (“−” indicates less than 50% inhibition at 10 μM) | − (“−” indicates less than 50% inhibition at 10 μM) | − (“−” indicates less than 50% inhibition at 10 μM) | – |
| CO[C@H]1[C@H](O)[C@@H](COCc2ccc(Cl)cc2)OC(OCc2ccc3ccccc3c2)[C@@H]1NC(=O)CCCNC(=N)N (stereo partly drawn) [compound 81] | – | – | – | – | – | – | – | – | – | – | – | A5 radioligand binding inhibition ([1]; human melanocortin MC5 membranes): + (“+” indicates greater than 50% inhibition at 10 μM); A3 radioligand binding inhibition ([2]; human melanocortin MC3 membranes): + (“+” indicates greater than 50% inhibition at 10 μM); A7 radioligand binding inhibition ([3]; human μ-opioid (MOP) membranes): + (“+” indicates greater than 50% inhibition at 10 μM); A1 radioligand binding inhibition ([4]; human δ-opioid (DOP) membranes): − (“−” indicates less than 50% inhibition at 10 μM); A2 radioligand binding inhibition ([5]; human κ-opioid (KOP) membranes): + (“+” indicates greater than 50% inhibition at 10 μM); A10 radioligand binding inhibition ([6]; human ORL1 membranes): − (“−” indicates less than 50% inhibition at 10 μM); A6 radioligand binding inhibition ([7]; human MCH1 membranes): − (“−” indicates less than 50% inhibition at 10 μM); A8 radioligand binding inhibition ([8]; human neurokinin NK1 membranes): + (“+” indicates greater than 50% inhibition at 10 μM); A9 radioligand binding inhibition ([9]; human NPY-Y1 membranes): − (“−” indicates less than 50% inhibition at 10 μM); A4 radioligand binding inhibition ([10]; human melanocortin MC4 membranes): + (“+” indicates greater than 50% inhibition at 10 μM); A11 radioligand binding inhibition ([11]; mouse urotensin mUR2 membranes): − (“−” indicates less than 50% inhibition at 10 μM) |
